Results on 33 molecules are retold here after patent US20230087118A1, “IMIDAZO[1,2-a][sequence] DERIVATIVES AND THEIR USE IN THE TREATMENT OF DISEASE” (priority 2019, published 2023).

pIC50: −log10 of the molar value. Where a name gives a salt, the structure may show the parent alone.

The first test has as its target T1, IRAK4 (Homo sapiens, UniProt Q9NWZ3).
T1 sequence (Q9NWZ3 1-460): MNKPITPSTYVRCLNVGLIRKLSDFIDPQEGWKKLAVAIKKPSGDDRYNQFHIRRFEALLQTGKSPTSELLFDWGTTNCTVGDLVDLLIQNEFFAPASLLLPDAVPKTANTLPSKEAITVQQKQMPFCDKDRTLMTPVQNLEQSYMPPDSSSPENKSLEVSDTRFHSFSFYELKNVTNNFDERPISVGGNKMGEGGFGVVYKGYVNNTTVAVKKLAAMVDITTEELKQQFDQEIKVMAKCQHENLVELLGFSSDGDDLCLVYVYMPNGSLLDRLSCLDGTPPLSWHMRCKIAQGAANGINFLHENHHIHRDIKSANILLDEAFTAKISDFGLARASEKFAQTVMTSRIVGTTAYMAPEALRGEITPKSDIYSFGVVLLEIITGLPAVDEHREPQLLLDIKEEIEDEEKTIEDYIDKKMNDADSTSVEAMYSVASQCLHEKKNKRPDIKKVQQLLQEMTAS
Put plainly: biochemical.
Conditions: not given
The term pIC50 denotes −log10 of the IC50, conventionally taken in molar units. A low value points to a high IC50. As to `CCC(C)Oc1nc2nc(C34COC(C)(C3)C4)cn2cc1C(=O)Nc1cnn2cc(C)cnc12` (single isomer, unassigned) [Example 643], the pIC50 was 9.40.

For the molecule `Cn1ccc(NC(=O)c2cn3cc(C45COC(C)(C4)C5)nc3c(OC3CCC3)n2)n1` [Example 346, 8-Cyclobutoxy-N-(1-methyl-1H-pyrazol-3-yl)-2-(1-methyl-2-oxabicyclo[2.1.1]hexan-4-yl)imidazo[1,2-a]pyrazine-6-carboxamide], the pIC50 was 8.07.

For `O=C(Nc1cccn(C(F)F)c1=O)c1cn2cc(C3CC3)nc2cc1OC1CCCC1` [Example 458, 7-(Cyclopentyloxy)-2-cyclopropyl-N-(1-(difluoromethyl)-2-oxo-1,2-dihydropyridin-3-yl)imidazo[1,2-a]pyridine-6-carboxamide], the pIC50 is 8.72.

Take `Cc1cccc(NC(=O)c2cn3cc(C45COC(C)(C4)C5)nc3nc2OC(C)C)n1` [Example 355, 7-Isopropoxy-2-(1-methyl-2-oxabicyclo[2.1.1]hexan-4-yl)-N-(6-methylpyridin-2-yl)imidazo[1,2-a]pyrimidine-6-carboxamide]: the pIC50 is 8.80.

`CCn1ccc(NC(=O)c2cn3cc(C45CCC(C)(C4)OC5)nc3cc2OC2CCC2)n1` (stereo not drawn) [Example 533, 7-Cyclobutoxy-N-(1-ethyl-1H-pyrazol-3-yl)-2-(1-methyl-2-oxabicyclo[2.2.1]heptan-4-yl)imidazo[1,2-a]pyridine-6-carboxamide] gave a pIC50 of 8.43.

`CC(C)Oc1cc2nc(C34CCC(C)(C3)OC4)cn2cc1C(=O)Nc1cccc(C#N)n1` (stereo not drawn) [Example 509, N-(6-cyanopyridin-2-yl)-7-isopropoxy-2-(1-methyl-2-oxabicyclo[2.2.1]heptan-4-yl)imidazo[1,2-a]pyridine-6-carboxamide] had a negative logarithm of the IC50 (pIC50) of 9.52.

As for `Cc1cnc2c(NC(=O)c3cn4cc(C56CCC(C)(C5)OC6)nc4nc3OC(C)C)cnn2c1` (stereo not drawn) [Example 569, 7-Isopropoxy-2-(1-methyl-2-oxabicyclo[2.2.1]heptan-4-yl)-N-(6-methylpyrazolo[1,5-a]pyrimidin-3-yl)imidazo[1,2-a]pyrimidine-6-carboxamide], the pIC50 is 8.62.

`CC(C)Oc1cc2nc(C3CC3)cn2cc1C(=O)Nc1cccc(CO)n1` [Example 483, 2-Cyclopropyl-N-(6-(hydroxymethyl)pyridin-2-yl)-7-isopropoxyimidazo[1,2-a]pyridine-6-carboxamide] showed a pIC50 of 8.05.

Molecule `CC12CC(c3cn4cc(C(=O)Nc5ccn(CC#N)n5)c(OC5CCC5)cc4n3)(CO1)C2` [Example 527, N-(1-(cyanomethyl)-1H-pyrazol-3-yl)-7-cyclobutoxy-2-(1-methyl-2-oxabicyclo[2.1.1]hexan-4-yl)imidazo[1,2-a]pyridine-6-carboxamide] showed a pIC50 of 8.36.

Consider `COc1nc(C(=O)Nc2cccc(C(F)(F)F)n2)cn2cc(C[C@H]3CCOC3)nc12` (single isomer, unassigned) [Example 71], for which the pIC50 is 7.51.

As for `CC(C)Oc1nc2nc([C@@]34CC[C@@](C)(C3)OC4)cn2cc1C(=O)Nc1cnn2cccnc12` (single isomer, unassigned) [Example 612], the pIC50 was 9.40.

For `COc1cc2nc(C3CCOCC3)cn2cc1C(=O)Nc1cccc(C)c1Cl` [Example 115], the pIC50 was 8.21.

`CCC(C)Oc1nc2nc(C34COC(CF)(C3)C4)cn2cc1C(=O)Nc1cnn2cc(C)cnc12` (single isomer, unassigned) [Example 645] showed a pIC50 of 9.30.

Turning to `CC(C)Oc1nc(C(=O)Nc2cccc(C(F)F)n2)cn2cc([C@]34CC[C@](C)(C3)OC4)nc12` (single isomer, unassigned) [Example 589], the pIC50 is 8.62.

Take `CCC(C)Oc1nc2nc(C34COC(CF)(C3)C4)cn2cc1C(=O)Nc1cnn2cc(C)cnc12` (single isomer, unassigned) [Example 644]: the pIC50 was 8.92.

`Cc1nc(C(=O)Nc2cccc(C(F)F)n2)cn2cc(C3CCOCC3)nc12` [Example 213]: the pIC50 was 7.22.

On to `CC(C)Oc1nc(C(=O)Nc2cccn(C)c2=O)cn2cc(C34CCC(C)(C3)OC4)nc12` (stereo not drawn) [Example 341, 8-Isopropoxy-N-(1-methyl-2-oxo-1,2-dihydropyridin-3-yl)-2-(1-methyl-2-oxabicyclo[2.2.1]heptan-4-yl)imidazo[1,2-a]pyrazine-6-carboxamide], for which the pIC50 was 9.05.

Molecule `Cn1ccc(NC(=O)c2cn3cc(C45CCC(C)(CC4)OC5)nc3cc2OC2CCC2)n1` [Example 570, 7-Cyclobutoxy-N-(1-methyl-1H-pyrazol-3-yl)-2-(1-methyl-2-oxabicyclo[2.2.2]octan-4-yl)imidazo[1,2-a]pyridine-6-carboxamide] had a pIC50 of 9.40.

Molecule `COc1cccc(NC(=O)c2cn3cc(C4CC4)nc3cc2OC2CCCC2)n1` [Example 465, 7-(Cyclopentyloxy)-2-cyclopropyl-N-(6-methoxypyridin-2-yl)imidazo[1,2-a]pyridine-6-carboxamide] showed a pIC50 of 8.10.

As to `COc1ccc(Cl)cc1NC(=O)c1cn2cc(C3CCOCC3)nc2cc1OC` [Example 112], the pIC50 is 6.29.

Take `CC(C)Oc1cc2nc(C34CC(C#N)(C3)C4)cn2cc1C(=O)Nc1cccc(C(F)F)n1` [Example 402, 2-(3-Cyanobicyclo[1.1.1]pentan-1-yl)-N-(6-(difluoromethyl)pyridin-2-yl)-7-isopropoxyimidazo[1,2-a]pyridine-6-carboxamide]: the pIC50 was 9.70.

Molecule `Cn1ccc(NC(=O)c2cn3cc([C@@]45CC[C@@](C)(C4)OC5)nc3cc2OC2CCCC2)n1` (single isomer, unassigned) [Example 634] showed a negative-log IC50 (pIC50) of 8.64.

As to `CCCOc1nc(C(=O)Nc2cccnc2OC)cn2cc(C34COC(C)(C3)C4)nc12` [Example 342, N-(2-methoxypyridin-3-yl)-2-(1-methyl-2-oxabicyclo[2.1.1]hexan-4-yl)-8-propoxyimidazo[1,2-a]pyrazine-6-carboxamide], the pIC50 was 9.00.

In the case of `CCOc1nc(C(=O)Nc2cccn(C)c2=O)cn2cc(C34COC(C)(C3)C4)nc12` [Example 500, 8-Ethoxy-N-(1-methyl-2-oxo-1,2-dihydropyridin-3-yl)-2-(1-methyl-2-oxabicyclo[2.1.1]hexan-4-yl)imidazo[1,2-a]pyrazine-6-carboxamide], the pIC50 is 8.68.

On to `Cn1ccc(NC(=O)c2cn3cc(C45COC(C)(C4)C5)nc3cc2OC2CCC2)n1` [Example 437, 7-Cyclobutoxy-N-(1-methyl-1H-pyrazol-3-yl)-2-(1-methyl-2-oxabicyclo[2.1.1]hexan-4-yl)imidazo[1,2-a]pyridine-6-carboxamide], for which the pIC50 is 8.77.

Still in this test, the particulars now being: IRAK4 Biochemical Assay (1 mM ATP, 2 h) IC50 (μM), 1 mM ATP, 2 h, 100 pM IRAK4.
What is called IC50 is the concentration needed to halve the response being measured. The molecule `CC1(COc2cc3nc(C4CC4)cn3cc2C(=O)Nc2cccc(C(F)F)n2)CCOC1` (stereo not drawn) [Example 475, 2-Cyclopropyl-N-(6-(difluoromethyl)pyridin-2-yl)-7-((3-methyltetrahydrofuran-3-yl)methoxy)imidazo[1,2-a]pyridine-6-carboxamide] had an IC50 of 0.0088 µM.

Molecule `O=C(Nc1cccn(C(F)F)c1=O)c1cn2cc(C3CC3)nc2cc1OC1CC(C(F)F)C1` (stereo not drawn) [Example 461, 2-Cyclopropyl-N-(1-(difluoromethyl)-2-oxo-1,2-dihydropyridin-3-yl)-7-(3-(difluoromethyl)cyclobutoxy)imidazo[1,2-a]pyridine-6-carboxamide] returned an IC50 of 0.0072 µM.

Molecule `CC(C)Oc1cc2nc(C34CCC(C)(C3)OC4)cn2cc1C(=O)Nc1ccn(C(F)F)n1` (stereo not drawn) [Example 504, N-(1-(difluoromethyl)-1H-pyrazol-3-yl)-7-isopropoxy-2-(1-methyl-2-oxabicyclo[2.2.1]heptan-4-yl)imidazo[1,2-a]pyridine-6-carboxamide] returned an IC50 of 0.0018 µM.

Molecule `CC(C)Oc1cc2nc(C34COC(C)(C3)C4)cn2cc1C(=O)Nc1cccc(C#N)c1F` [Example 257, N-(3-cyano-2-fluorophenyl)-7-isopropoxy-2-(1-methyl-2-oxabicyclo[2.1.1]hexan-4-yl)imidazo[1,2-a]pyridine-6-carboxamide trifluoroacetate] came in with an IC50 of 0.0003 µM.

Take `CC(C)Oc1cc2nc(C34COC(C)(C3)C4)c(F)n2cc1C(=O)Nc1cccc(C(F)F)n1` [Example 324, N-(6-(difluoromethyl)pyridin-2-yl)-3-fluoro-7-isopropoxy-2-(1-methyl-2-oxabicyclo[2.1.1]hexan-4-yl)imidazo[1,2-a]pyridine-6-carboxamide trifluoroacetate]: it took 0.002 µM to reach half-maximal inhibition (IC50).

In the case of `CC(C)Oc1nc2nc(C34COC(C)(C3)C4)cn2cc1C(=O)Nc1csc2nccnc12` [Example 380, 7-Isopropoxy-2-(1-methyl-2-oxabicyclo[2.1.1]hexan-4-yl)-N-(thieno[2,3-b]pyrazin-7-yl)imidazo[1,2-a]pyrimidine-6-carboxamide trifluoroacetate], the IC50 was determined as 0.0002 µM.

In turn, `CCc1cccc(NC(=O)c2cn3cc(C45COC(CF)(C4)C5)nc3cc2OC)n1` [Example 58, N-(6-ethylpyridin-2-yl)-2-(1-(fluoromethyl)-2-oxabicyclo[2.1.1]hexan-4-yl)-7-methoxyimidazo[1,2-a]pyridine-6-carboxamide trifluoroacetate] had an IC50 of 0.0105 µM.

For the molecule `Cn1ccc(NC(=O)c2cn3cc(C45COC(C)(C4)C5)nc3cc2OC2CC(C(F)F)C2)n1` (stereo not drawn) [Example 451, 7-(3-(Difluoromethyl)cyclobutoxy)-N-(1-methyl-1H-pyrazol-3-yl)-2-(1-methyl-2-oxabicyclo[2.1.1]hexan-4-yl)imidazo[1,2-a]pyridine-6-carboxamide], the IC50 worked out at 0.0065 µM.
